# From ChEMBL document CHEMBL5465560, “Selectivity Literature for EUbOPEN Chemogenomic Library” (2024)
# How the values were obtained:
# [1] = target: T1, Gamma-aminobutyric acid receptor subunit alpha-1 (Homo sapiens) (UniProt P14867); test: Selectivity interaction (Eurofins CEREP Diversity Profile (receptors and ion channels)) EUB0000279b GABRA1; details: at 10 µM
# T1 sequence (whole entry): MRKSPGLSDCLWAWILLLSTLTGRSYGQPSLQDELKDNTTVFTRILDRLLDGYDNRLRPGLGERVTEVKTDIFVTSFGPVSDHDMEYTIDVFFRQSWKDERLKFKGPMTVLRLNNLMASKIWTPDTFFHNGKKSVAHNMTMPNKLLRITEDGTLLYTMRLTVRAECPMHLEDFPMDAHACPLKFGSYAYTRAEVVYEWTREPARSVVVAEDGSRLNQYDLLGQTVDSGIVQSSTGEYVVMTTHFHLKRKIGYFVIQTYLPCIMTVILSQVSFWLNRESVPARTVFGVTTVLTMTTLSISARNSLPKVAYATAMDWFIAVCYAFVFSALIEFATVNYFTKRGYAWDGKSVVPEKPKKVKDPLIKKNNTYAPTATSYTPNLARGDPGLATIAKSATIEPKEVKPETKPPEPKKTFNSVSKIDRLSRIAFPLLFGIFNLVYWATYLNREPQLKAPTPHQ
# [2] = target: T2, Muscle, skeletal receptor tyrosine-protein kinase (Homo sapiens) (UniProt O15146); test: Selectivity interaction (SelectScreen profiling (Invitrogen)) EUB0000607a MUSK; details: at 2 µM
# T2 sequence (whole entry): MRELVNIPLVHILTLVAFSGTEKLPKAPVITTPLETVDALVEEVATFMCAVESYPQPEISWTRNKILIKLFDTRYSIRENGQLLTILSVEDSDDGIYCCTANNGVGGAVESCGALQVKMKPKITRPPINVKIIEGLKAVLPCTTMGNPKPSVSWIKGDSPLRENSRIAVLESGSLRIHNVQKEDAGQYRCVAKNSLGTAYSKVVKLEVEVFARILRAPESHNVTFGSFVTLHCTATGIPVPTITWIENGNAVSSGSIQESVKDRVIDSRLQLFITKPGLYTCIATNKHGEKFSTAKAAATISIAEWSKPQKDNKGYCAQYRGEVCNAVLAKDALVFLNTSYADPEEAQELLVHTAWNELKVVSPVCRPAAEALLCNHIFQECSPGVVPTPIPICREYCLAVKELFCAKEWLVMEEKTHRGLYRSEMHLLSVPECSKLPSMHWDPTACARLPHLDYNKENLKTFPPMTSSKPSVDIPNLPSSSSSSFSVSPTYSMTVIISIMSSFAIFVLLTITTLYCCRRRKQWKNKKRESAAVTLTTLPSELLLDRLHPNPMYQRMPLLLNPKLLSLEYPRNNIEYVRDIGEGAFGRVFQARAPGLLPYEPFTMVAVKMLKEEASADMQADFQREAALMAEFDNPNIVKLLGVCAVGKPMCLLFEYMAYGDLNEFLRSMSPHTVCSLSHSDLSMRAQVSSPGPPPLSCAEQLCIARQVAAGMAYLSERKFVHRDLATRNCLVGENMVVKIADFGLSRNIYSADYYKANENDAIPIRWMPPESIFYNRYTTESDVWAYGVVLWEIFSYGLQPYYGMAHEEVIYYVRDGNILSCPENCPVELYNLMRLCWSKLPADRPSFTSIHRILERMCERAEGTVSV
# [3] = system: Tyrosine-protein kinase ABL1 (Homo sapiens), P00519 [H396P]; test: Selectivity interaction (KinomeScan (DiscoverX)) EUB0000045b ABL1; details: at 10 µM
# [4] = target: Glycogen synthase kinase-3 beta (Homo sapiens, UniProt P49841); test: Selectivity interaction (Upstate Kinase Profiler service (Millipore)) EUB0000056c GSK3B; details: at 1 µM
# [5] = target: T3, Serine/threonine-protein kinase ULK2 (Homo sapiens) (UniProt Q8IYT8); test: Selectivity interaction (LanthaScreen Eu Kinase Binding Assay) EUB0001632a ULK2; details: at 10 µM
# T3 sequence (whole entry): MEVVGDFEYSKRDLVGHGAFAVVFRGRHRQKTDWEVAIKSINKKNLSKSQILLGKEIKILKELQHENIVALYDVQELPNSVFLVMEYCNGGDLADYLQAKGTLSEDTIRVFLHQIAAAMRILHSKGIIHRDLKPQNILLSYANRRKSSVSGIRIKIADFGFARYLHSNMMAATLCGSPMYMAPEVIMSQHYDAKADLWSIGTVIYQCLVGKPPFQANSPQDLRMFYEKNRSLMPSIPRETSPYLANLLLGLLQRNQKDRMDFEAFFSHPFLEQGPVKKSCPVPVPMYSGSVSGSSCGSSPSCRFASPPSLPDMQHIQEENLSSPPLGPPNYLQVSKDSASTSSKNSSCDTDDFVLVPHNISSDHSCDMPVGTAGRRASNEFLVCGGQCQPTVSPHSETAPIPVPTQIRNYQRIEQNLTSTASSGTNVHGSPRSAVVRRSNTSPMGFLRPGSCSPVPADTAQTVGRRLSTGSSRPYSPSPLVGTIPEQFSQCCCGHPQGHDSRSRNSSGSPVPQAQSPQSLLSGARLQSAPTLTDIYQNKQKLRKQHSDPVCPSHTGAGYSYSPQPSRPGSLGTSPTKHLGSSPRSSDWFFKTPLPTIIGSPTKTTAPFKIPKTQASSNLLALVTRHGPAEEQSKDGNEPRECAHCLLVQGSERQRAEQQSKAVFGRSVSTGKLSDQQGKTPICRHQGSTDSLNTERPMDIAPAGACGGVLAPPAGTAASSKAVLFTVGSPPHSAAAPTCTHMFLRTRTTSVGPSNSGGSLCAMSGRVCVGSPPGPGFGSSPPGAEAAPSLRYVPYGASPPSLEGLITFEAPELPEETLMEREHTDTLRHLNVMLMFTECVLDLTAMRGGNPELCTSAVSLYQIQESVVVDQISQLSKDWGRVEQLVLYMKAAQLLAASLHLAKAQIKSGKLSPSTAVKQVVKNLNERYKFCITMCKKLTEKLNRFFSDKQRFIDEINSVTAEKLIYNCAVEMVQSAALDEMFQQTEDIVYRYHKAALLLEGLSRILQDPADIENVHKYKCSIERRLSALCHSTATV
# Sequence of Glycogen synthase kinase-3 beta (P49841 whole entry, looked up): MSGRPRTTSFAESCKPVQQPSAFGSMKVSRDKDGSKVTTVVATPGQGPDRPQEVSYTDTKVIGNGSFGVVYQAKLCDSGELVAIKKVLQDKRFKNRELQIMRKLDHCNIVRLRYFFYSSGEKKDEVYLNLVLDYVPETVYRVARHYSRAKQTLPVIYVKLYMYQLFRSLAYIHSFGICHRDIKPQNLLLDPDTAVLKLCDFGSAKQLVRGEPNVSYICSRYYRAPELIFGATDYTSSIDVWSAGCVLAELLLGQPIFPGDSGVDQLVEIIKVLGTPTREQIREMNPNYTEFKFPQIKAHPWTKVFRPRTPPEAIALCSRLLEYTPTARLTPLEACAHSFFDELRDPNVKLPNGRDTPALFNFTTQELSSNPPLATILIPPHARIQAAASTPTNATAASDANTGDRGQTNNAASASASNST
smiles,measurement,setting,value
CC(=O)c1cc(-c2ccccc2OCC2CC2)c2ncccn12,% of control,[1],103%
CNC(=O)Nc1ccc(-c2nc(N3CC4CCC(C3)O4)c3cnn(C4CCC5(CC4)OCCO5)c3n2)cc1,% of inhibition,[2],15%
C=CC(=O)Nc1cc(-n2c(=O)ccc3cnc4ccc(-c5ccc(NS(C)(=O)=O)cc5)cc4c32)ccc1C,% of control,[3],44%
Cc1ccc(-c2ccc3c(ccc4sc5c(c43)NC[C@@H](C)NC5=O)n2)cn1,% of inhibition,[4],11%
Cn1cc(-n2cnc3c(NCc4nc5cc(Cl)c(Cl)cc5[nH]4)nc(N4CCOCC4)nc32)cn1,% of inhibition,[5],-117%
